Experimental data: patent publication US11419918B2, “Treatment of biliary cirrhosis based on oxyntomodulin analogue GLP-1R/GCGR dual-target agonist peptide” (Shenzhen Turier Biotech Co., Ltd., priority 2017, dated 2022)
Numbered stars: 1 amine (or outer) side, 2 acyl side, 3 side chain; on linkers, the order of the positions; unused ones are H or OH. Square brackets hold non-standard residues; d marks the D form. Primed or numbered codes have the meaning given here. Side chains are listed from the residue outwards. Ends that are not written are not given here. * marks the point of attachment. C18 diacid = O=C(O)CCCCCCCCCCCCCCCCC(=O)*; γGlu = O=C(O)[C@H](CCC(=O)[*:2])N[*:1]; Palmitoyl = CCCCCCCCCCCCCCCC(=O)*; Nle = CCCC[C@H](N)C(=O)O; PEG2′ = not defined here

Assays:
[1] = system: BDL-induced cholestasis hepatic fibrosis in rats; assay: Bile duct ligation (BDL)-induced hepatic fibrosis in rats (biliary cirrhosis rat model); type: in vivo, SD rats; details: 50 μg/kg subcutaneous every two days, 14 days
Description: 1. Experimental Drugs: polypeptide compounds 3, 6, 7, 10, 17, 20, 37, 38, 39, 40, 44, 46, Obeticholic Acid (Abbr. OCA, CAS:459789-99-2, purchased from Zhejiang Warrant Pharmaceutical Co., Ltd.) and Liraglutide. Saving condition was −20° C.
128 male SD rats with body weight of 200-230 g were randomly divided into sixteen groups, which were respectively:
SD rats with body weight of 200-230 g at SPF level were provided by Lanzhou University Laboratory Animal Center. After rats were quarantined in the room (SPF environment) for one week, model rat and rat in sham-operated group were subject to intraperitoneal injection and anesthesia with 0.6% pentobarbital sodium solution, and operation was performed on a super clean bench after anesthesia. Bilateral ligation was conducted on model rat after the common bile duct was separated, and ligation was not conducted on rat in sham-operated group, but only the common bile duct was separated. Administration was started from the next day of the operation.
Administration was started from the first day of the operation, and subcutaneous injection of compounds 3, 6, 7, 10, 17, 20, 37, 38, 39, 40, 44, 46 and Liraglutide with 50 μg/kg was performed every two days; intraperitoneal injection for the Obeticholic Acid administration group with 7.5 mg/kg was performed every day; as for the normal saline group, injection was performed every day. During the administration, changes in vital signs of rats were observed every day.
After the end of two weeks of administration cycle (14 days), the rats were killed to collect materials for subsequent biological determination experiments. The livers were taken out for HE dye, Sirius Red dye and IHC dye. Image-pro plus and Graph pad software were used for statistics.

[2] = system: human hepatic stellate cells (LX-2); assay: In vitro inhibition of hepatic fibrosis: expression of activation marker α-SMA in LX-2 cells (Western Blot, β-actin internal reference); type: cell-based; details: 10.0 μM, 48 hours, negative control (PBS) = 100%
How it was run: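 LX-2 cells grown in DMEM high glucose + 10% FBS to ~70% confluence, then exposed to polypeptides (in PBS) at different doses for 48 h; PBS-only negative control. α-SMA quantified by Western blot densitometry normalised to β-actin, expressed relative to control set at 100%.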

Substance | ALT in the serum (FIG. 6) [1] | BDL-induced hepatic fibrosis and inflammation (HE, Sirius Red, IHC sections) [1] | collagenous fiber deposition in liver (Sirius Red dyed sections, FIGS. 2, 4) [1] | content of hydroxyproline of the liver (FIG. 7) [1] | α-SMA in liver (IHC dyed sections, FIGS. 3, 5) [1] | Relative expression of α-SMA (α-SMA/β-actin, %) [2] [%]
His-(D-Ser)-Gln-Gly-Thr-Phe-Thr-Ser-Asp-Tyr-Ser-Lys-Tyr-Leu-Asp-Lys(PEG2-PEG2-γGlu-CO(CH2)14CH3)-Arg-Arg-Ala-Gln-Asp-Phe-Val-Gln-Trp-Leu-Nle-Asn-Thr-Gly-Gly-Pro-Ser-Ser-Gly-Ala-Pro-Pro-Pro-Ser-NH2 (H[dS]QGTFTSDYSKYLDK([PEG2′-PEG2′-γGlu-Palmitoyl])RRAQDFVQWL[Nle]NTGGPSSGAPPPS-NH2) [Compound 37] | significantly inhibit | significantly reduce | significantly inhibit | significantly inhibit | significantly inhibit | 29.95
His-(D-Ser)-Gln-Gly-Thr-Phe-Thr-Ser-Asp-Tyr-Ser-Lys-Tyr-Leu-Asp-Lys(PEG2-PEG2-γGlu-CO(CH2)16CO2H)-Arg-Arg-Ala-Gln-Asp-Phe-Val-Gln-Trp-Leu-Leu-Asn-Thr-Gly-Gly-Pro-Ser-Ser-Gly-Ala-Pro-Pro-Pro-Ser-NH2 (H[dS]QGTFTSDYSKYLDK([PEG2′-PEG2′-γGlu-C18 diacid])RRAQDFVQWLLNTGGPSSGAPPPS-NH2) [Compound 39] | significantly inhibit | significantly reduce | significantly inhibit | significantly inhibit | significantly inhibit | 41.68
His-(D-Ser)-Gln-Gly-Thr-Phe-Thr-Ser-Asp-Tyr-Ser-Lys-Tyr-Leu-Asp-Lys(PEG2-PEG2-γGlu-CO(CH2)16CO2H)-Arg-Arg-Ala-Gln-Asp-Phe-Val-Gln-Trp-Leu-Nle-Asn-Thr-Gly-Gly-Pro-Ser-Ser-Gly-Ala-Pro-Pro-Pro-Ser-NH2 (H[dS]QGTFTSDYSKYLDK([PEG2′-PEG2′-γGlu-C18 diacid])RRAQDFVQWL[Nle]NTGGPSSGAPPPS-NH2) [Compound 38] | significantly inhibit | significantly reduce | significantly inhibit | significantly inhibit | significantly inhibit | 40.55
His-(D-Ser)-Gln-Gly-Thr-Phe-Thr-Ser-Asp-Tyr-Ser-Lys-Tyr-Leu-Asp-Ser-Lys(PEG2-PEG2-γGlu-CO(CH2)16CO2H)-Ala-Ala-His-Asp-Phe-Val-Glu-Trp-Leu-Leu-Arg-Ala-NH2 (H[dS]QGTFTSDYSKYLDSK([PEG2′-PEG2′-γGlu-C18 diacid])AAHDFVEWLLRA-NH2) [Compound 17] | significantly inhibit | significantly reduce | significantly inhibit | significantly inhibit | significantly inhibit | 35.38
